Measured values reported in patent publication US20100317524A1, “Sulfonylureas” (Bayer CropScience AG, priority 2005, published 2010).

system: weed plants such as Sinapis alba, Chrysanthemum segetum, Avena sativa, Stellaria media, Echinochloa crus-galli, Lolium multiflorum, Setaria viridis, Abutilon …; assay: Pre-emergence effect on weeds (greenhouse pot test, visual scoring); type: in vivo; details: applied pre-emergence at a rate of 0.3 kg or less of active substance per hectare; visual scoring after 3 to 4 weeks vs untreated controls
Description: Seeds or sections of rhizome from monocot and dicot weed plants were laid out in sandy loam soil in cardboard pots, and covered with soil. The compounds of the invention, formulated as wettable powders or emulsifiable concentrates, were then applied, in the form of aqueous suspensions or emulsions, at various dosages, onto the surface of the covering earth, at an application rate of 600 to 800 l of water per hectare (converted). Following the treatment, the pots were placed in a greenhouse and maintained under good growth conditions for the weeds. Visual scoring of the plant damage or emergence damage was made when the test plants had emerged, after a test time of 3 to 4 weeks, in comparison to untreated controls.

| Compound | herbicidal action against weed plants, pre-emergence |
| --- | --- |
| COc1nc(NC(=O)NS(=O)(=O)c2c(I)cccc2OS(C)(=O)=O)nc(OC)n1 [Compound 1.476] | very good herbicidal action |
| Cc1cc(C)nc(NC(=O)NS(=O)(=O)c2c(I)cccc2OC(F)F)n1 [Compound 1.329] | very good herbicidal action |
| COc1nc(C)nc(NC(=O)NS(=O)(=O)c2c(I)cccc2OC(F)(F)F)n1 [Compound 1.306] | very good herbicidal action |
| COc1cc(Cl)nc(NC(=O)NS(=O)(=O)c2c(I)cccc2OCC(C)C)n1 [Compound 1.563] | very good herbicidal action |
| COc1cc(Cl)nc(NC(=O)NS(=O)(=O)c2c(I)cccc2OCC(F)(F)C(F)(F)F)n1 [Compound 1.372] | very good herbicidal action |
| COc1cc(OC)nc(NC(=O)NS(=O)(=O)c2c(I)cccc2OC)n1 [Compound 1.146, N-{[(4,6-Dimethoxypyrimidin-2-yl)amino]carbonyl}-2-iodo-6-methoxybenzenesulfonamide] | very good herbicidal action |
| COc1cc(OC)nc(NC(=O)NS(=O)(=O)c2c(F)cccc2I)n1 [Compound 1.001] | very good herbicidal action |
| COc1cc(OC)nc(NC(=O)NS(=O)(=O)c2c(I)cccc2OC(C)C)n1 [Compound 1.178] | very good herbicidal action |
| CCOc1cccc(I)c1S(=O)(=O)NC(=O)Nc1nc(OC)cc(OC)n1 [Compound 1.164] | very good herbicidal action |
| Cc1cc(C)nc(NC(=O)NS(=O)(=O)c2c(C)cccc2I)n1 [Compound 1.020] | very good herbicidal action |
| COc1nc(C)nc(NC(=O)NS(=O)(=O)c2c(F)cccc2I)n1 [Compound 1.002] | very good herbicidal action |
| Cc1cc(C)nc(NC(=O)NS(=O)(=O)c2c(I)cccc2OCC2CC2)n1 [Compound 1.237] | very good herbicidal action |
| COc1cc(OC)nc(NC(=O)NS(=O)(=O)c2c(I)cccc2OC(C)C(F)(F)F)n1 (stereo not shown) [Compound 1.362] | very good herbicidal action |
| CCCOc1cccc(I)c1S(=O)(=O)NC(=O)Nc1nc(OC)nc(OC)n1 [Compound 1.175] | very good herbicidal action |
| COc1nc(NC(=O)NS(=O)(=O)c2c(OC)ccc(Cl)c2I)nc(OC)n1 [Compound 1.602] | very good herbicidal action |
| Cc1cc(C)nc(NC(=O)NS(=O)(=O)c2c(I)cccc2OS(C)(=O)=O)n1 [Compound 1.471] | very good herbicidal action |
| COc1cc(Cl)nc(NC(=O)NS(=O)(=O)c2c(C)cccc2I)n1 [Compound 1.021] | very good herbicidal action |
| Cc1cc(C)nc(NC(=O)NS(=O)(=O)c2c(I)cccc2OC(C)C(F)(F)F)n1 (stereo not shown) [Compound 1.364] | very good herbicidal action |
| COc1nc(C)nc(NC(=O)NS(=O)(=O)c2c(I)cccc2OC(C)C)n1 [Compound 1.182] | very good herbicidal action |

| Compound | herbicidal action against weed plants, pre-emergence |
| --- | --- |
| COc1nc(C)nc(NC(=O)NS(=O)(=O)c2c(I)cccc2SC)n1 [Compound 1.390] | very good herbicidal action |
| CCOc1cccc(I)c1S(=O)(=O)NC(=O)Nc1nc(C)nc(OC)n1 [Compound 1.165] | very good herbicidal action |
| COc1cc(OC)nc(NC(=O)NS(=O)(=O)c2c(I)cccc2OCC2CC2)n1 [Compound 1.229] | very good herbicidal action |
| COc1cc(OC)nc(NC(=O)NS(=O)(=O)c2c(I)cccc2OC(F)(F)F)n1 [Compound 1.302] | very good herbicidal action |
| COc1cccc(I)c1S(=O)(=O)NC(=O)Nc1nc(C)cc(C)n1 [Compound 1.154] | very good herbicidal action |
| CCCCOc1cccc(I)c1S(=O)(=O)NC(=O)Nc1nc(C)nc(OC)n1 [Compound 1.553] | very good herbicidal action |
| COc1cc(Cl)nc(NC(=O)NS(=O)(=O)c2c(I)cccc2SC)n1 [Compound 1.551] | very good herbicidal action |
| COc1cc(Cl)nc(NC(=O)NS(=O)(=O)c2c(I)cccc2C(F)(F)F)n1 [Compound 1.100] | very good herbicidal action |
| COc1ccc(Cl)c(I)c1S(=O)(=O)NC(=O)Nc1nc(C)cc(C)n1 [Compound 1.600] | very good herbicidal action |
| COc1cc(OC)nc(NC(=O)NS(=O)(=O)c2c(OC)ccc(Cl)c2I)n1 [Compound 1.598] | very good herbicidal action |
| COc1nc(C)nc(NC(=O)NS(=O)(=O)c2c(I)cccc2OCC(F)(F)F)n1 [Compound 1.342] | very good herbicidal action |
| COc1cc(OC)nc(NC(=O)NS(=O)(=O)c2c(I)cccc2OC(F)F)n1 [Compound 1.321] | very good herbicidal action |
| COc1nc(NC(=O)NS(=O)(=O)c2c(C)cccc2I)nc(OC)n1 [Compound 1.025] | very good herbicidal action |
| COc1cc(OC)nc(NC(=O)NS(=O)(=O)c2c(I)cccc2C(F)(F)F)n1 [Compound 1.091] | very good herbicidal action |
| COc1nc(NC(=O)NS(=O)(=O)c2c(I)cccc2OC(F)(F)F)nc(OC)n1 [Compound 1.315] | very good herbicidal action |
| COc1nc(C)nc(NC(=O)NS(=O)(=O)c2c(I)cccc2OC(F)F)n1 [Compound 1.325] | very good herbicidal action |
| COc1cc(Cl)nc(NC(=O)NS(=O)(=O)c2c(I)cccc2OS(=O)(=O)N(C)C)n1 [Compound 1.510] | very good herbicidal action |
| COc1nc(C)nc(NC(=O)NS(=O)(=O)c2c(OC)ccc(Cl)c2I)n1 [Compound 1.599] | very good herbicidal action |
| Cc1cc(C)nc(NC(=O)NS(=O)(=O)c2c(I)cccc2OC(C)C)n1 [Compound 1.186] | very good herbicidal action |

system: weed plants such as Sinapis alba, Echinochloa crus-galli, Lolium multiflorum, Chrysanthemum segetum, Setaria viridis, Abutilon theophrasti, Amaranthus …; assay: Post-emergence effect on weeds (greenhouse pot test, visual scoring); type: in vivo; details: applied post-emergence (three-leaf stage) at a rate of 0.3 kg or less of active substance per hectare; visual scoring after about 3 to 4 weeks vs untreated controls
Procedure: Seeds or sections of rhizome from monocot and dicot broadleaf weeds were laid out in sandy loam soil in plastic pots, covered with earth, and cultivated in a greenhouse under good growth conditions. Three weeks after sowing, the test plants were treated at the three-leaf stage. The compounds of the invention, formulated as wettable powders or as emulsion concentrates, were sprayed in different dosages onto the green parts of the plants, at an application rate of 600 to 800 l of water per hectare (converted). After the test plants had stood in the greenhouse under optimum growth conditions for a period of about 3 to 4 weeks, the effect of the products was scored visually in comparison to untreated controls.

| Compound | herbicidal action against weed plants, post-emergence |
| --- | --- |
| COc1nc(NC(=O)NS(=O)(=O)c2c(I)cccc2OS(C)(=O)=O)nc(OC)n1 [Compound 1.476] | very good herbicidal action |
| Cc1cc(C)nc(NC(=O)NS(=O)(=O)c2c(I)cccc2OC(F)F)n1 [Compound 1.329] | very good herbicidal action |
| COc1nc(C)nc(NC(=O)NS(=O)(=O)c2c(I)cccc2OC(F)(F)F)n1 [Compound 1.306] | very good herbicidal action |
| COc1cc(Cl)nc(NC(=O)NS(=O)(=O)c2c(I)cccc2OCC(C)C)n1 [Compound 1.563] | very good herbicidal action |
| COc1cc(Cl)nc(NC(=O)NS(=O)(=O)c2c(I)cccc2OCC(F)(F)C(F)(F)F)n1 [Compound 1.372] | very good herbicidal action |
| COc1cc(OC)nc(NC(=O)NS(=O)(=O)c2c(I)cccc2OC)n1 [Compound 1.146, N-{[(4,6-Dimethoxypyrimidin-2-yl)amino]carbonyl}-2-iodo-6-methoxybenzenesulfonamide] | very good herbicidal action |
| COc1cc(OC)nc(NC(=O)NS(=O)(=O)c2c(F)cccc2I)n1 [Compound 1.001] | very good herbicidal action |
| COc1cc(OC)nc(NC(=O)NS(=O)(=O)c2c(I)cccc2OC(C)C)n1 [Compound 1.178] | very good herbicidal action |
| CCOc1cccc(I)c1S(=O)(=O)NC(=O)Nc1nc(OC)cc(OC)n1 [Compound 1.164] | very good herbicidal action |
| Cc1cc(C)nc(NC(=O)NS(=O)(=O)c2c(C)cccc2I)n1 [Compound 1.020] | very good herbicidal action |
| COc1nc(C)nc(NC(=O)NS(=O)(=O)c2c(F)cccc2I)n1 [Compound 1.002] | very good herbicidal action |
| Cc1cc(C)nc(NC(=O)NS(=O)(=O)c2c(I)cccc2OCC2CC2)n1 [Compound 1.237] | very good herbicidal action |
| COc1cc(OC)nc(NC(=O)NS(=O)(=O)c2c(I)cccc2OC(C)C(F)(F)F)n1 (stereo not shown) [Compound 1.362] | very good herbicidal action |
| CCCOc1cccc(I)c1S(=O)(=O)NC(=O)Nc1nc(OC)nc(OC)n1 [Compound 1.175] | very good herbicidal action |
| COc1nc(NC(=O)NS(=O)(=O)c2c(OC)ccc(Cl)c2I)nc(OC)n1 [Compound 1.602] | very good herbicidal action |
| Cc1cc(C)nc(NC(=O)NS(=O)(=O)c2c(I)cccc2OS(C)(=O)=O)n1 [Compound 1.471] | very good herbicidal action |
| COc1cc(Cl)nc(NC(=O)NS(=O)(=O)c2c(C)cccc2I)n1 [Compound 1.021] | very good herbicidal action |
| Cc1cc(C)nc(NC(=O)NS(=O)(=O)c2c(I)cccc2OC(C)C(F)(F)F)n1 (stereo not shown) [Compound 1.364] | very good herbicidal action |
| COc1nc(C)nc(NC(=O)NS(=O)(=O)c2c(I)cccc2OC(C)C)n1 [Compound 1.182] | very good herbicidal action |

| Compound | herbicidal action against weed plants, post-emergence |
| --- | --- |
| COc1nc(C)nc(NC(=O)NS(=O)(=O)c2c(I)cccc2SC)n1 [Compound 1.390] | very good herbicidal action |
| CCOc1cccc(I)c1S(=O)(=O)NC(=O)Nc1nc(C)nc(OC)n1 [Compound 1.165] | very good herbicidal action |
| COc1cc(OC)nc(NC(=O)NS(=O)(=O)c2c(I)cccc2OCC2CC2)n1 [Compound 1.229] | very good herbicidal action |
| COc1cc(OC)nc(NC(=O)NS(=O)(=O)c2c(I)cccc2OC(F)(F)F)n1 [Compound 1.302] | very good herbicidal action |
| COc1cccc(I)c1S(=O)(=O)NC(=O)Nc1nc(C)cc(C)n1 [Compound 1.154] | very good herbicidal action |
| CCCCOc1cccc(I)c1S(=O)(=O)NC(=O)Nc1nc(C)nc(OC)n1 [Compound 1.553] | very good herbicidal action |
| COc1cc(Cl)nc(NC(=O)NS(=O)(=O)c2c(I)cccc2SC)n1 [Compound 1.551] | very good herbicidal action |
| COc1cc(Cl)nc(NC(=O)NS(=O)(=O)c2c(I)cccc2C(F)(F)F)n1 [Compound 1.100] | very good herbicidal action |
| COc1ccc(Cl)c(I)c1S(=O)(=O)NC(=O)Nc1nc(C)cc(C)n1 [Compound 1.600] | very good herbicidal action |
| COc1cc(OC)nc(NC(=O)NS(=O)(=O)c2c(OC)ccc(Cl)c2I)n1 [Compound 1.598] | very good herbicidal action |
| COc1nc(C)nc(NC(=O)NS(=O)(=O)c2c(I)cccc2OCC(F)(F)F)n1 [Compound 1.342] | very good herbicidal action |
| COc1cc(OC)nc(NC(=O)NS(=O)(=O)c2c(I)cccc2OC(F)F)n1 [Compound 1.321] | very good herbicidal action |
| COc1nc(NC(=O)NS(=O)(=O)c2c(C)cccc2I)nc(OC)n1 [Compound 1.025] | very good herbicidal action |
| COc1cc(OC)nc(NC(=O)NS(=O)(=O)c2c(I)cccc2C(F)(F)F)n1 [Compound 1.091] | very good herbicidal action |
| COc1nc(NC(=O)NS(=O)(=O)c2c(I)cccc2OC(F)(F)F)nc(OC)n1 [Compound 1.315] | very good herbicidal action |
| COc1nc(C)nc(NC(=O)NS(=O)(=O)c2c(I)cccc2OC(F)F)n1 [Compound 1.325] | very good herbicidal action |
| COc1cc(Cl)nc(NC(=O)NS(=O)(=O)c2c(I)cccc2OS(=O)(=O)N(C)C)n1 [Compound 1.510] | very good herbicidal action |
| COc1nc(C)nc(NC(=O)NS(=O)(=O)c2c(OC)ccc(Cl)c2I)n1 [Compound 1.599] | very good herbicidal action |
| Cc1cc(C)nc(NC(=O)NS(=O)(=O)c2c(I)cccc2OC(C)C)n1 [Compound 1.186] | very good herbicidal action |
